Laboratory results published in patent US20210214375A1 (LUNDBECK LA JOLLA RESEARCH CENTER, INC., priority 2017, published 2021).

Experiments:
[1] = biological target: T1, MAGL (Mus musculus, UniProt O35678); experiment: Mouse brain proteomes from inhibitor treated mice (oral gavage, brain proteomes analyzed 4 h after administration); assay type: in vivo, mouse (C57Bl/6J); conditions: brain proteome 4 h after administration, read-out: % Inh 5 mg/kg MGLL (Mouse)
T1 construct: from tissue; host or cells: brain of wild-type C57Bl/6J mice
T1 sequence (O35678 1-303): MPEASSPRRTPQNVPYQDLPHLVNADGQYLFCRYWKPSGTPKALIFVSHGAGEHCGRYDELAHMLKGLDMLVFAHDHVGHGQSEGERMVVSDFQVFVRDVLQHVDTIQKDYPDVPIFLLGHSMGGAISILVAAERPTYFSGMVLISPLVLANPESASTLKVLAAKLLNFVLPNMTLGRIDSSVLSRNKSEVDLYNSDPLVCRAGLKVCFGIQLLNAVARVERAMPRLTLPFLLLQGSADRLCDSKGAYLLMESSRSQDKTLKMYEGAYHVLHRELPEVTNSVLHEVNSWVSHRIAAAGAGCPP
Procedure: Compounds are tested to assess their MAGL and serine hydrolase activity using the following in vitro and in vivo assays.
Preparation of Mouse Brain Proteomes from Inhibitor Treated Mice.
Inhibitors were administered to wild-type C57Bl/6J by oral gavage in a vehicle of polyethylene glycol. Each animal was sacrificed 4 h following administration and brain proteomes were prepared and analyzed according to previously established methods (See Niphakis, M. J., et al. (2011) ACS Chem. Neurosci. and Long, J. Z., et al. Nat. Chem. Biol. 5:37-44).

[2] = biological target: T2, MAGL (Homo sapiens, UniProt Q99685); experiment: In vitro competitive activity-based protein profiling (gel-based, FP-Rh or HT-01 probe); assay type: biochemical; conditions: for IC50: PC3 proteome, read-out: IC50 MGLL PC3 (Human); for % Inh MGLL PFC (Human, μM): PFC (prefrontal cortex) proteome
T2 construct: Proteomes (human prefrontal cortex or cell membrane fractions); from tissue
T2 sequence (Q99685 1-303): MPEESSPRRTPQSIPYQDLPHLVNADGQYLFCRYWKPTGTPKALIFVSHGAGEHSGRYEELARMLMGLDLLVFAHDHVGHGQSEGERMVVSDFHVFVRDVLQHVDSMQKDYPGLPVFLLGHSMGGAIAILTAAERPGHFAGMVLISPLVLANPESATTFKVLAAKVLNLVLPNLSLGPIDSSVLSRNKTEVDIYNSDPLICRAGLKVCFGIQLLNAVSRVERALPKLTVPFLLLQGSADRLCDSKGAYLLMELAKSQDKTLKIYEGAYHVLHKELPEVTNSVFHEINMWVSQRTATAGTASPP
In short: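 Readout is SDS-PAGE of probe-labelled proteome after FP-Rh or HT-01 (1.0 μL, 50 μM stock) labelling for 30 min at room temperature. Beforehand, inhibitors at varying concentrations were preincubated 30 min at 37° C with human prefrontal cortex or cell membrane fractions at 1.0 mg/mL total protein.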

CN(Cc1ccc(C(F)(F)F)cc1CN1CCC(C(=O)O)CC1)C1(C)CCN(C(=O)OC(C(F)(F)F)C(F)(F)F)CC1 [Example 137, 1-(2-(((1-(((1,1,1,3,3,3-Hexafluoropropan-2-yl)oxy)carbonyl)-4-methylpiperidin-4-yl)(methyl)amino)methyl)-5-(trifluoromethyl)benzyl)piperidine-4-carboxylic acid]
inhibition at 5 mg/kg [1]: ≥ 75%
IC50 [2]: < 0.1 µM
% Inh MGLL PFC (Human, μM) [2]: ### (### is ≥ 75%)

CN(Cc1cccc(Cl)c1C1(C(=O)O)CCCC1)C1(C)CCN(C(=O)OC(C(F)(F)F)C(F)(F)F)CC1 [Example 9, 1-(2-Chloro-6-(((1-(((1,1,1,3,3,3-hexafluoropropan-2-yl)oxy)carbonyl)-4-methylpiperidin-4-yl)(methyl)amino)methyl)phenyl)cyclopentane-1-carboxylic acid]
inhibition at 5 mg/kg [1]: ≤ 25%
IC50 [2]: < 0.1 µM
% Inh MGLL PFC (Human, μM) [2]: ### (### is ≥ 75%)

CC(C)(C#Cc1cc(C(F)(F)F)ccc1CN1CCCC12CCN(C(=O)OC(C(F)(F)F)C(F)(F)F)CC2)C(=O)O [Example 5, 4-(2-((8-(((1,1,1,3,3,3-Hexafluoropropan-2-yl)oxy)carbonyl)-1,8-diazaspiro[4.5]decan-1-yl)methyl)-5-(trifluoromethyl)phenyl)-2,2-dimethylbut-3-ynoic acid]
inhibition at 5 mg/kg [1]: ≥ 75%
IC50 [2]: < 0.1 µM

O=C(O)CN1CC2CC1CN2c1cc(C(F)(F)F)ccc1CN1CC2(CCN(C(=O)OC(C(F)(F)F)C(F)(F)F)CC2)C1 (stereo not shown) [Example 127, 2-(5-{2-[(7-{[(1,1,1,3,3,3-Hexafluoropropan-2-yl)oxy]carbonyl}-2,7-diazaspiro[3.5]nonan-2-yl)methyl]-5-(trifluoromethyl)phenyl}-2,5-diazabicyclo[2.2.1]heptan-2-yl)acetic acid]
inhibition at 5 mg/kg [1]: ≤ 25%
IC50 [2]: < 0.1 µM

O=C(O)CN1CCC2(CC1)CCN(c1cc(C(F)(F)F)ccc1CN1CCCC13CCN(C(=O)OC(C(F)(F)F)C(F)(F)F)CC3)C2 [Example 154, 2-(2-(2-((8-(((1,1,1,3,3,3-Hexafluoropropan-2-yl)oxy)carbonyl)-1,8-diazaspiro[4.5]decan-1-yl)methyl)-5-(trifluoromethvl)phenyl)-2,8-diazaspiro[4.5]decan-8-yl)acetic acid]
inhibition at 5 mg/kg [1]: ≤ 25%
IC50 [2]: < 0.1 µM

CC(C)(C#Cc1c(Cl)cccc1CN1CCCC12CCN(C(=O)OC(C(F)(F)F)C(F)(F)F)CC2)C(=O)O [Example 1, 4-(2-Chloro-6-((8-(((1,1,1,3,3,3-hexafluoropropan-2-yl)oxy)carbonyl)-1,8-diazaspiro[4.5]decan-1-yl)methyl)phenyl)-2,2-dimethylbut-3-ynoic acid]
inhibition at 5 mg/kg [1]: 25 to 75%
IC50 [2]: < 0.1 µM
% Inh MGLL PFC (Human, μM) [2]: ### (### is ≥ 75%)

CN(Cc1ccc(C(F)(F)F)cc1N1CCC(C(=O)O)CC1)C1(C)CCN(C(=O)OC(C(F)(F)F)C(F)(F)F)CC1 [Example 14, 1-(2-(((1-(((1,1,1,3,3,3-Hexafluoropropan-2-yl)oxy)carbonyl)-4-methylpiperidin-4-yl)(methyl)amino)methyl)-5-(trifluoromethyl)phenyl)piperidine-4-carboxylic acid]
inhibition at 5 mg/kg [1]: ≥ 75%
IC50 [2]: < 0.1 µM

O=C(OC(C(F)(F)F)C(F)(F)F)N1CCC2(CCCN2Cc2cc(F)cc(C3(C(=O)O)CCCC3)c2)CC1 [Example 4, 1-(3-Fluoro-5-((8-(((1,1,1,3,3,3-hexafluoropropan-2-yl)oxy)carbonyl)-1,8-diazaspiro[4.5]decan-1-yl)methyl)phenyl)cyclopentane-1-carboxylic acid]
inhibition at 5 mg/kg [1]: ≥ 75%
IC50 [2]: < 0.1 µM
% Inh MGLL PFC (Human, μM) [2]: ### (### is ≥ 75%)

CN(Cc1ccc(C(F)(F)F)cc1C1(C(=O)O)CCCC1)C1(C)CCN(C(=O)OC(C(F)(F)F)C(F)(F)F)CC1 [Example 133, 1-(2-{[(1-{[(1,1,1,3,3,3-Hexafluoropropan-2-yl)oxy]carbonyl}-4-methylpiperidin-4-yl)(methyl)amino]methyl}-5-(trifluoromethyl)phenyl)cyclopentane-1-carboxylic acid]
inhibition at 5 mg/kg [1]: ≥ 75%
IC50 [2]: < 0.1 µM
% Inh MGLL PFC (Human, μM) [2]: ### (### is ≥ 75%)

CN(Cc1ccc(Cl)cc1C1(C(=O)O)CCCC1)C1(C)CCN(C(=O)OC(C(F)(F)F)C(F)(F)F)CC1 [Example 142, 1-(5-Chloro-2-{[(1-{[(1,1,1,3,3,3-hexafluoropropan-2-yl)oxy]carbonyl}-4-methylpiperidin-4-yl)(methyl)amino]methyl}phenyl) cyclopentane-1-carboxylic acid]
inhibition at 5 mg/kg [1]: ≥ 75%
IC50 [2]: < 0.1 µM
% Inh MGLL PFC (Human, μM) [2]: ### (### is ≥ 75%)

O=C(O)C1CCN(c2c(Cl)cccc2CN2CCC3(CC2)CCN(C(=O)OC(C(F)(F)F)C(F)(F)F)C3)CC1 [Example 218, 1-(2-Chloro-6-((2-(((1,1,1,3,3,3-hexafluoropropan-2-yl)oxy)carbonyl)-2,8-diazaspiro[4.5]decan-8-yl)methyl)phenyl) piperidine-4-carboxylic acid]
inhibition at 5 mg/kg [1]: ≥ 75%
IC50 [2]: < 0.1 µM

CN(Cc1ccc(C(F)(F)F)cc1N1CCC(C(=O)O)C1)C1(C)CCN(C(=O)OC(C(F)(F)F)C(F)(F)F)CC1 (stereo not shown) [Example 118, 1-(2-(((1-(((1,1,1,3,3,3-Hexafluoropropan-2-yl)oxy)carbonyl)-4-methylpiperidin-4-yl)(methyl)amino)methyl)-5-(trifluoromethyl)phenyl)pyrrolidine-3-carboxylic acid]
inhibition at 5 mg/kg [1]: ≥ 75%
IC50 [2]: < 0.1 µM

CC(C)(C#Cc1c(F)cccc1CN1CCCC12CCN(C(=O)OC(C(F)(F)F)C(F)(F)F)CC2)C(=O)O [Example 147, 4-{2-Fluoro-6-[(8-{[(1,1,1,3,3,3-hexafluoropropan-2-yl)oxy]carbonyl}-1,8-diazaspiro[4.5]decan-1-yl)methyl]phenyl]-2,2-dimethylbut-3-ynoic acid]
inhibition at 5 mg/kg [1]: ≥ 75%
IC50 [2]: < 0.1 µM
% Inh MGLL PFC (Human, μM) [2]: ### (### is ≥ 75%)

CC1(C(=O)O)CN(c2cc(C(F)(F)F)ccc2CN2CC3(CCN(C(=O)OC(C(F)(F)F)C(F)(F)F)CC3)C2)CCO1 (stereo not shown) [Example 130, 4-(2-((7-(((1,1,1,3,3,3-Hexafluoropropan-2-yl)oxy)carbonyl)-2,7-diazaspiro[3.5]nonan-2-yl)methyl)-5-(trifluoromethyl)phenyl)-2-methylmoipholine-2-carboxylic acid]
inhibition at 5 mg/kg [1]: ≤ 25%
IC50 [2]: < 0.1 µM

O=C(O)C1CCN(Cc2cc(C(F)(F)F)ccc2C(=O)N2CCCC23CCN(C(=O)OC(C(F)(F)F)C(F)(F)F)CC3)CC1 [Example 10, 1-(2-(8-(((1,1,1,3,3,3-Hexafluoropropan-2-yl)oxy)carbonyl)-1,8-diazaspiro[4.5]decane-1-carbonyl)-5-(trifluoromethyl)benzyl)piperidine-4-carboxylic acid]
inhibition at 5 mg/kg [1]: ≥ 75%
% Inh MGLL PFC (Human, μM) [2]: ### (### is ≥ 75%)

O=C(O)CN1CC2(CCN(c3cc(C(F)(F)F)ccc3CN3CCCC34CCN(C(=O)OC(C(F)(F)F)C(F)(F)F)CC4)CC2)C1 [Example 157, 2-(7-(2-((8-(((1,1,1,3,3,3-Hexafluoropropan-2-yl)oxy)carbonyl)-1,8-diazaspiro[4.5]decan-1-yl)methyl)-5-(trifluoromethyl)phenyl)-2,7-diazaspiro[3.5]nonan-2-yl)acetic acid]
inhibition at 5 mg/kg [1]: ≤ 25%
IC50 [2]: < 0.1 µM

CN(Cc1ccc(F)cc1C1(C(=O)O)CCCC1)C1(C)CCN(C(=O)OC(C(F)(F)F)C(F)(F)F)CC1 [Example 143, 1-(5-Fluoro-2-{[(1-{[(1,1,1,3,3,3-hexafluoropropan-2-yl)oxy]carbonyl}-4-methylpiperidin-4-yl)(methyl)amino]methyl}phenyl) cyclopentane-1-carboxylic acid]
inhibition at 5 mg/kg [1]: ≥ 75%
IC50 [2]: < 0.1 µM
% Inh MGLL PFC (Human, μM) [2]: ### (### is ≥ 75%)

O=C(O)CN1CCC2(CCN(c3cc(C(F)(F)F)ccc3CN3CCCC34CCN(C(=O)OC(C(F)(F)F)C(F)(F)F)CC4)CC2)C1 [Example 153, 2-(8-(2-((8-(((1,1,1,3,3,3-Hexafluoropropan-2-yl)oxy)carbonyl)-1,8-diazaspiro[4.5]decan-1-yl)methyl)-5-(trifluoromethyl)phenyl)-2,8-diazaspiro[4.5]decan-2-yl)acetic acid]
inhibition at 5 mg/kg [1]: ≤ 25%
IC50 [2]: < 0.1 µM

CC1(N(CC(=O)O)Cc2ccc(C(F)(F)F)cc2N2CCOCC2)CCN(C(=O)OC(C(F)(F)F)C(F)(F)F)CC1 [Example 124, N-(1-(((1,1,1,3,3,3-Hexafluoropropan-2-yl)oxy)carbonyl)-4-methylpiperidin-4-yl)-N-(2-morpholino-4-(trifluoromethyl)benzyl)glycine]
inhibition at 5 mg/kg [1]: ≥ 75%
IC50 [2]: < 0.1 µM
